Data published in patent publication US20090305894A1, “use of sulfonanilides as herbicide” (priority 2005, published 2009).

Assays:
Assay type in all cases: in vivo
Triticum aestivum [1] = assay: Herbicide damage to crops in dry field, spraying treatment to stems and leaves after sprouting (Test Example 5, Table 13); conditions: 80 g ai/ha, rated after 3 weeks
Protocol: (§1) The formulations of active compounds were obtained as emulsions by mixing 1 part by weight of the active compound with the carrier and emulsifier in the described amounts. The formulations were diluted with water so as to adjust a prescribed dosage.
In a greenhouse seeds of rice (cultivar: Balilla) and weeds (Brachiaria plantaginea, Cyperus esculntus, Cyperus iria L., Echinochloa colonum, Leptochloa chinensis, Ipomoea purpurea, and Sesbania exaltata) were inoculated on the surface layers of pots filled with 100 cm^2 of paddy field soil and covered with soil. Water was poured to produce wet state (water level 0 cm). The prescribed diluted solutions of the formulations of the respective active compounds obtained in the same manner as in Test Example 1 were sprayed on the soil of some pots on completion of the seeding and the solutions of the agents were sprayed over the plants from the above in the rest of the pots after the respective sample plants were grown in first- to third-1 eaf stage in the greenhouse. After one day from the treatment with the compound, water was poured in 3 cm depth. […] When herbicidal effect was 80% or higher, it was determined to be practically applicable as herbicides. When the herbicide damage was 20% or lower, the safety of the herbicide was evaluated to be excellent. […]

Glycine max = assay: Herbicide damage to crops in dry field, spraying treatment on soil before sprouting (Test Example 4, Table 12); conditions: 80 g ai/ha, rated after 3 weeks
Protocol: as §1
(§2) In a greenhouse seeds of rice (cultivar: Balilla) and weeds (Brachiaria plantaginea, Cyperus esculntus, Cyperus iria L., Echinochloa colonum, Leptochloa chinensis, Ipomoea purpurea, and Sesbania exaltata) were inoculated on the surface layers of pots filled with 100 cm^2 of paddy field soil and covered with soil. Water was poured to produce wet state (water level 0 cm). The prescribed diluted solutions of the formulations of the respective active compounds obtained in the same manner as in Test Example 1 were sprayed on the soil of some pots on completion of the seeding and the solutions of the agents were sprayed over the plants from the above in the rest of the pots after the respective sample plants were grown in first- to third-1 eaf stage in the greenhouse. After one day from the treatment with the compound, water was poured in 3 cm depth. The herbicidal effects and herbicide damage on rice of the respective compounds were investigated after 3 weeks from the treatment. The herbicidal effect and herbicide damage on the rice were rated as 100% in the case of complete withering and 0% in the case of no herbicidal effect or no harm. When herbicidal effect was 80% or higher, it was determined to be practically applicable as herbicides. When the herbicide damage was 20% or lower, the safety of the herbicide was evaluated to be excellent.
(§3) In a greenhouse one seed each of crops in dry field (Triticum aestivum and Glycine max) and weeds (Echinochloa crus-gali and Setaria vividis) were inoculated in the surface layer in one pot filled with 16 cm^2 of dry field soil and covered with soil. The prescribed diluted solutions of the formulations of the respective active compounds obtained in the same manner as in Test Example 1 were sprayed to the soil upon the inoculation. The herbicidal effect and herbicide damage on crops of the respective compounds were investigated after 3 weeks from the treatment. Evaluations of the herbicidal effect and herbicide damage were carried out in the same manner as in Test Example 3. As the representative example, the test results of compound No. 1 and 24, and the comparative compound C-1 are shown in Table 12.

Triticum aestivum [2] = assay: as above; conditions: 80 g ai/ha, rated after 3 weeks
Protocol: as §1, §2, §3

Viola mandshurica = assay: Herbicidal effect on weeds in dry field, spraying treatment to stems and leaves after sprouting (Test Example 5, Table 13); conditions: 80 g ai/ha, rated after 3 weeks
Protocol: as §1, §2
(§4) In a green house one seed each of crops in dry field (Triticum aestivum) and weeds (Veronica persica and Viola mandshurica) were inoculated in the surface layer in one pot filled with 16 cm^2 of dry field soil and covered with soil. After the sample plants were grown to second- and third-leaf stages at the greenhouse, the prescribed diluted solutions of the formulations of the respective active compounds obtained in the same manner as in Test Example 1 were sprayed over the plants from the above. The herbicidal effect and herbicide damage on crops of the respective compounds were investigated after 3 weeks from the treatment. Evaluations of the herbicidal effect and herbicide damage were carried out in the same manner as in Test Example 3.

Veronica persica = assay: as above; conditions: 80 g ai/ha, rated after 3 weeks
Protocol: as §1, §2, §4

Setaria vividis = assay: Herbicidal effect on weeds in dry field, spraying treatment on soil before sprouting (Test Example 4, Table 12); conditions: 80 g ai/ha, spraying to soil before sprouting, rated after 3 weeks
Protocol: as §1, §2, §3

Echinochloa crus-gali = assay: as above; conditions: 80 g ai/ha, spraying to soil before sprouting, rated after 3 weeks
Protocol: as §1, §2, §3

rice (cultivar: Balilla) [3] = assay: Irrigated directly seeded paddy rice, herbicide damage, spraying to stems and leaves after sprouting (Test Example 3, Table 11); conditions: 20 g ai/ha, rated after 3 weeks
Protocol: as §1, §2

rice (cultivar: Balilla) [4] = assay: Irrigated directly seeded paddy rice, herbicide damage, spraying to soil before sprouting (Test Example 3, Table 10); conditions: 20 g ai/ha, rated after 3 weeks
Protocol: as §1, §2

[5] = system: Scirpus juncoides Roxburgh (resistant to sulfonylurea type herbicide); assay: Herbicidal efficacy test to weeds resistant to sulfonylurea type herbicide (Test Example 1, applied on water surface, Table 8); conditions: 60 g ai/ha, applied on water surface at beginning of sprouting, rated after 3 weeks; 100% = complete withering, 0% = no effect
Protocol: (§5) Preparation of formulation of active compound
(§6) Carrier: DMF 5 parts by weight
(§7) Emulsifier: benzyloxypolyglycol ether 1 part by weight
as §1
(§8) In a greenhouse respective seeds of Scirpus juncoides Roxburgh (from Hokkaido, Japan) and Lindernia procumbens Philcox (from Saitama, Japan), which are confirmed to have resistance to a sulfonylurea type herbicide, were inoculated in pots filled with 500 cm^2 of paddy field soil and water was poured to the pot in about 2 to 3 cm depth. At the beginning of sprouting of the weeds, prescribed diluted solutions of the formulations of the respective active compounds obtained by the above-mentioned manner were applied on the water surface. After the treatment water depth of 3 cm was kept. The herbicidal effect was investigated after 3 weeks of the treatment. The herbicidal effect was rated as 100% in the case of complete withering and 0% in the case of no herbicidal effect. When the herbicidal effect was 80% or higher, the practical effectiveness as herbicides is recognized. As the representative examples, the test results of the compound Nos. 1, 3, 4, 5, 6, 7, 13, 70, 127, 128 and 130 are shown in Table 8.

Cyperus iria L. [6] = assay: Irrigated directly seeded paddy rice, herbicidal effect, spraying to soil before sprouting (Test Example 3, Table 10); conditions: 20 g ai/ha, rated after 3 weeks
Protocol: as §1, §2

Echinochloa colonum [7] = assay: as above; conditions: 20 g ai/ha, rated after 3 weeks
Protocol: as §1, §2

Brachiaria plantaginea [8] = assay: as above; conditions: 20 g ai/ha, rated after 3 weeks
Protocol: as §1, §2

Sesbania exaltata [9] = assay: as above; conditions: 20 g ai/ha, rated after 3 weeks
Protocol: as §1, §2

Leptochloa chinensis [10] = assay: as above; conditions: 20 g ai/ha, rated after 3 weeks
Protocol: as §1, §2

Ipomoea purpurea [11] = assay: as above; conditions: 20 g ai/ha, rated after 3 weeks
Protocol: as §1, §2

Cyperus esculntus [12] = assay: as above; conditions: 20 g ai/ha, rated after 3 weeks
Protocol: as §1, §2

Cyperus iria L. [13] = assay: Irrigated directly seeded paddy rice, herbicidal effect, spraying to stems and leaves after sprouting (Test Example 3, Table 11); conditions: 20 g ai/ha, rated after 3 weeks
Protocol: as §1, §2

Echinochloa colonum [14] = assay: as above; conditions: 20 g ai/ha, rated after 3 weeks
Protocol: as §1, §2

Brachiaria plantaginea [15] = assay: as above; conditions: 20 g ai/ha, rated after 3 weeks
Protocol: as §1, §2

Sesbania exaltata [16] = assay: as above; conditions: 20 g ai/ha, rated after 3 weeks
Protocol: as §1, §2

Leptochloa chinensis [17] = assay: as above; conditions: 20 g ai/ha, rated after 3 weeks
Protocol: as §1, §2

Ipomoea purpurea [18] = assay: as above; conditions: 20 g ai/ha, rated after 3 weeks
Protocol: as §1, §2

Cyperus esculntus [19] = assay: as above; conditions: 20 g ai/ha, rated after 3 weeks
Protocol: as §1, §2

[20] = system: Lindernia procumbens Philcox (resistant to sulfonylurea type herbicide); assay: Herbicidal efficacy test to weeds resistant to sulfonylurea type herbicide (Test Example 1, applied on water surface, Table 8); conditions: 60 g ai/ha, applied on water surface at beginning of sprouting, rated after 3 weeks; 100% = complete withering, 0% = no effect
Protocol: as §5, §6, §7, §1, §8

SMILES: COc1cc(OC)nc(C(O)c2cccc(F)c2NS(=O)(=O)C(F)(F)F)n1 (stereo not drawn) [C-1, reference compound]
- Herbicide damage Triticum aestivum (Triticum aestivum [1]): 0%
- Herbicide damage Glycine max (Glycine max): 20%
- Herbicide damage Triticum aestivum (Triticum aestivum [2]): 0%
- Herbicidal effect Viola mandshurica (Viola mandshurica): 30%
- Herbicidal effect Veronica persica (Veronica persica): 60%
- Herbicidal effect Setaria vividis (Setaria vividis): 0%
- Herbicidal effect Echinochloa crus-gali (Echinochloa crus-gali): 0%

SMILES: COc1nc(OC)nc(C(=O)c2cccc(F)c2N(C)S(=O)(=O)C(F)F)n1 [Compound No. 1]
- Herbicide damage on Rice (rice (cultivar: Balilla) [3]): 20%
- Herbicide damage Glycine max (Glycine max): 20%
- Herbicide damage Triticum aestivum (Triticum aestivum [2]): 0%
- Herbicide damage on Rice (rice (cultivar: Balilla) [4]): 20%
- Herbicidal effect to sulfonylurea resistant weeds: Scirpus juncoides Roxburgh (from Hokkaido) [5]: 100%
- Herbicidal effect Cyperusiria L. (Cyperus iria L. [6]): 100%
- Herbicidal effect Echinochloa colonum (Echinochloa colonum [7]): 100%
- Herbicidal effect Brachiaria plantaginea (Brachiaria plantaginea [8]): 80%
- Herbicidal effect Sesbania exaltata (Sesbania exaltata [9]): 100%
- Herbicidal effect Leptochloa chinensis (Leptochloa chinensis [10]): 100%
- Herbicidal effect Ipomoea purpurea (Ipomoea purpurea [11]): 90%
- Herbicidal effect Cyperus esculntus (Cyperus esculntus [12]): 100%
- Herbicidal effect Cyperusiria L. (Cyperus iria L. [13]): 100%
- Herbicidal effect Echinochloa colonum (Echinochloa colonum [14]): 100%
- Herbicidal effect Brachiaria plantaginea (Brachiaria plantaginea [15]): 100%
- Herbicidal effect Sesbania exaltata (Sesbania exaltata [16]): 100%
- Herbicidal effect Leptochloa chinensis (Leptochloa chinensis [17]): 80%
- Herbicidal effect Ipomoea purpurea (Ipomoea purpurea [18]): 90%
- Herbicidal effect Cyperus esculntus (Cyperus esculntus [19]): 100%
- Herbicidal effect Setaria vividis (Setaria vividis): 80%
- Herbicidal effect Echinochloa crus-gali (Echinochloa crus-gali): 90%

SMILES: COc1cc(OC)nc(C(Cl)c2cccc(F)c2NS(=O)(=O)C(F)F)n1 (stereo not drawn) [compound 13]
- Herbicide damage Triticum aestivum (Triticum aestivum [1]): 0%
- Herbicidal effect Viola mandshurica (Viola mandshurica): 100%
- Herbicidal effect Veronica persica (Veronica persica): 100%
- Herbicidal effect to sulfonylurea resistant weeds: Scirpus juncoides Roxburgh (from Hokkaido) [5]: 100%
- Herbicidal effect to sulfonylurea resistant weeds: Lindernia procumbens Philcox (from Saitama pref.) [20]: 100%
